Tested on: RFP-GFP-LC3 expressing HeLa cells
Test: RFP-GFP-LC3 (tfLC3) fluorescence image-based autophagy assay
Type: cell-based
Excerpt: Prompted by the fact that many available autophagy chemical modulators lack either potency or specificity (Kimura et al., 2013), a fluorescence image-based assay was set up to screen small molecules affecting autophagy. HeLa cells, an autophagy competent cell line, were infected with lentiviruses carrying expression cassettes that encode RFP-GFP-LC3 (tfLC3) (Kimura et al., 2007). Thus, the LC3-II positive autophagosomes are labeled with both GFP and RFP signals shown as yellow puncta, and after fusion with lysosomes, autolysosomes are shown as red only puncta because GFP loses its fluorescence in acidic pH.
Next, a panel of small chemicals that are commercially available and have been previously shown to affect vesicle trafficking or organelle morphology were selected and screened for their effects on autophagy regulation in tfLC3 expressing HeLa cells (data not shown).

Row | SMILES | LC3 puncta (yellow = autophagosomes, red only = autolysosomes)
1 | CCN(CC)CCCC(C)Nc1ccnc2cc(Cl)ccc12 (centres unmarked) [CQ, Chloroquine] | markedly induced the accumulation of yellow puncta only
2 | CO/C1=C\C(C)=C\[C@@H](C)[C@@H](O)[C@@H](C)C/C(C)=C/C=C/[C@H](OC)[C@@H]([C@@H](C)[C@@H](O)[C@H](C)[C@@]2(O)C[C@@H](O)[C@H](C)[C@@H](C(C)C)O2)OC1=O [bafilomycin, Bafilomycin A1] | markedly induced the accumulation of yellow puncta only

— patent US9717737B2, “Vacuolin-1 as an inhibitor of autophagy and endosomal trafficking and the use thereof for inhibiting tumor progression” (The University of Hong Kong, priority 2014, dated 2017)
